Source: ChEMBL document CHEMBL5465560, “Selectivity Literature for EUbOPEN Chemogenomic Library” (2024)

Key:
[1] = biological target: T1, Bone morphogenetic protein receptor type-2 (Homo sapiens) (UniProt Q13873); test: Selectivity interaction (KinomeScan (DiscoverX)) EUB0000229b BMPR2; settings: at 10 µM
T1 sequence (whole entry): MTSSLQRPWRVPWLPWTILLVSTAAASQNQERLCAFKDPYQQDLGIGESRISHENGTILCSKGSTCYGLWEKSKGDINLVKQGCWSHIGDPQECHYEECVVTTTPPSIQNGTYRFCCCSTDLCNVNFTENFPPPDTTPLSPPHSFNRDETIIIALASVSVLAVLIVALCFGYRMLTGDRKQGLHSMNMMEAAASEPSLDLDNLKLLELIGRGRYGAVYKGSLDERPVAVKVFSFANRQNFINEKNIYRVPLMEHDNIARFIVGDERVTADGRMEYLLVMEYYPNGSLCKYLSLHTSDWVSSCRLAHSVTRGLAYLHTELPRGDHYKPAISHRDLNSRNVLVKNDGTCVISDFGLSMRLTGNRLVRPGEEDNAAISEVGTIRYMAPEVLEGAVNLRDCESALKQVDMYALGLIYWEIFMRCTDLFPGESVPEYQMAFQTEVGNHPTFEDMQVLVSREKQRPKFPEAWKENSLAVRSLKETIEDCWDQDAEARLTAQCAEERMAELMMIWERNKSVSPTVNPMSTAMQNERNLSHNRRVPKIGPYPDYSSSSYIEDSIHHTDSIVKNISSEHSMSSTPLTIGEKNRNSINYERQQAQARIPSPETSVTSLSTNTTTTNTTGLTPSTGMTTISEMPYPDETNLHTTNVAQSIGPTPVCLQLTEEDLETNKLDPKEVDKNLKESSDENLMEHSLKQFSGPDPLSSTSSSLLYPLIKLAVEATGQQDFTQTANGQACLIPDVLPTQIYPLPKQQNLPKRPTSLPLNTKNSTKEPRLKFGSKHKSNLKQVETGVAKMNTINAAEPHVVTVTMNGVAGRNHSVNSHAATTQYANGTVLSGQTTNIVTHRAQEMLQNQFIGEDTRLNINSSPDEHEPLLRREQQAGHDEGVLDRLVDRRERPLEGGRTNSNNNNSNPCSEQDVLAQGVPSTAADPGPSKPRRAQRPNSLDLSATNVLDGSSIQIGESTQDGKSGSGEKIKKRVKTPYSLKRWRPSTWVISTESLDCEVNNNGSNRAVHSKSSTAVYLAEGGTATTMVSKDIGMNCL

[2] = biological target: T2, Hormonally up-regulated neu tumor-associated kinase (Homo sapiens) (UniProt P57058); test: Selectivity interaction (KinomeScan (DiscoverX)) EUB0000229b HUNK; settings: at 10 µM
T2 sequence (whole entry): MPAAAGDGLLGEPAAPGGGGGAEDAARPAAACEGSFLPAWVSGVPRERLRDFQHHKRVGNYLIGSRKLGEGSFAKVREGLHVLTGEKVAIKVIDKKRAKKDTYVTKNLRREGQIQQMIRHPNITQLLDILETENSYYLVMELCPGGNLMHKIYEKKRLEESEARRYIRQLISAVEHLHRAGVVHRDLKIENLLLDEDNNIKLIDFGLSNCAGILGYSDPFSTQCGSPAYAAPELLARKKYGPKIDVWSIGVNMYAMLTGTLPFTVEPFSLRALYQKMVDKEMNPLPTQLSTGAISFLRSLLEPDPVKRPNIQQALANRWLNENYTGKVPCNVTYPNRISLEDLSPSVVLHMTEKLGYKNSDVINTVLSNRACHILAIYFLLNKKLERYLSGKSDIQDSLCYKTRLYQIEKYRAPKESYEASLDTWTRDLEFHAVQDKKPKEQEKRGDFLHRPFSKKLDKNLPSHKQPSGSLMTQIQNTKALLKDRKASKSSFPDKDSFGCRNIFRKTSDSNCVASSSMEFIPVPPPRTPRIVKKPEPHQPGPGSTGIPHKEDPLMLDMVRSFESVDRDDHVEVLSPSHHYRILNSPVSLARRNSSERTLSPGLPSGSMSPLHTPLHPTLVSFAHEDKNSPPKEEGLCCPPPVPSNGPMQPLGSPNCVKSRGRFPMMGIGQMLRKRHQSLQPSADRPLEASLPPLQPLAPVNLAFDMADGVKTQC

[3] = biological target: T3, STE20-related kinase adapter protein alpha (Homo sapiens) (UniProt Q7RTN6); test: Selectivity interaction (Kinase panel (KiNativ target engagement assay in Jurkat cells)) EUB0001635a STRADA; format: cell-based; settings: Selectivity number of off-targets 0.0, Selectivity number of targets 233.0, Source Knowledge https://www.sciencedirect.com/science/article/pii/S2451945619300674?via%3Dihub, at 1 µM
T3 sequence (whole entry): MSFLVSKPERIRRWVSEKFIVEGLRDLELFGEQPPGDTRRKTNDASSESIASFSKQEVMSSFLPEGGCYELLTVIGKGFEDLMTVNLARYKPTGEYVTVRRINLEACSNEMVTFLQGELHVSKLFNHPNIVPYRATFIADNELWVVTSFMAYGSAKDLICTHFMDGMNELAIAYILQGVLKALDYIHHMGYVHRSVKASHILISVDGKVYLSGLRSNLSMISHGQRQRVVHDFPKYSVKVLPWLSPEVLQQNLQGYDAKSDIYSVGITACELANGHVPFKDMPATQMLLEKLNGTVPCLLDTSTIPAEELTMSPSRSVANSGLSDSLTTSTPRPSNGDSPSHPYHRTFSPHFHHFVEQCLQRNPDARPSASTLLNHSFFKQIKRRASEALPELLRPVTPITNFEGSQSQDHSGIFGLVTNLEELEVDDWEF

[4] = biological target: Tyrosine-protein kinase FRK (Homo sapiens) (UniProt P42685); test: Selectivity interaction (KinomeScan (DiscoverX)) EUB0000092b FRK; settings: at 10 µM
Sequence of Tyrosine-protein kinase FRK (Homo sapiens) (P42685 whole entry): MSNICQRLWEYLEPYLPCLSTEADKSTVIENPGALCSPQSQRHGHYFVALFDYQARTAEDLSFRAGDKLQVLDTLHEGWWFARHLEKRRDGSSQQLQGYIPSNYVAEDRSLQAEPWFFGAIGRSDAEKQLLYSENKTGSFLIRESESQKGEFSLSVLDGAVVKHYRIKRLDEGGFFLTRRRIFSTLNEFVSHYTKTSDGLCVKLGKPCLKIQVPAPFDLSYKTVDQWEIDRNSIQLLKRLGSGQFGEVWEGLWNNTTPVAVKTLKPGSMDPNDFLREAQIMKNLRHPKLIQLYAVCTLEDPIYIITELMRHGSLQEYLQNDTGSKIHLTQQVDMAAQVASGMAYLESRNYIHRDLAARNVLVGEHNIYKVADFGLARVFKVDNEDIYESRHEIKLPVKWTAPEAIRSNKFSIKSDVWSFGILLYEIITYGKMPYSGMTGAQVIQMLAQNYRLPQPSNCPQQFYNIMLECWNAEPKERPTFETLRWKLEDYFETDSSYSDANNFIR

[5] = biological target: Serine/threonine-protein kinase pim-2 (Homo sapiens, UniProt Q9P1W9); test: Selectivity interaction (Kinase screening (Nanosyn)) EUB0000604a PIM2
Sequence of Serine/threonine-protein kinase pim-2 (Q9P1W9 whole entry, looked up): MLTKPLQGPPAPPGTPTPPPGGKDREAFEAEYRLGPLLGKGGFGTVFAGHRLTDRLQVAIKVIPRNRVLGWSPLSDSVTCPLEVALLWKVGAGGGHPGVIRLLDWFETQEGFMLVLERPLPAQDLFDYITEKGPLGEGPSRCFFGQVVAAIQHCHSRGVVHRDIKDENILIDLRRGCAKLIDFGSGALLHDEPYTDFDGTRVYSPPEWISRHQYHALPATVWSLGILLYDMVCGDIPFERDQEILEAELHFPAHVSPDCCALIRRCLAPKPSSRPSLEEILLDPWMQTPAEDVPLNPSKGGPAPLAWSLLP

[6] = system: Epidermal growth factor receptor (Homo sapiens), P00533 [UNDEFINED MUTATION]; test: Selectivity interaction (Ambit KINOMEscan and KiNATiv profiling in Jurkat cells) EUB0000090b EGFR; format: cell-based; settings: at 1 µM
Sequence of Epidermal growth factor receptor (Homo sapiens), P00533 [UNDEFINED MUTATION] (P00533 whole entry, looked up, change not shown): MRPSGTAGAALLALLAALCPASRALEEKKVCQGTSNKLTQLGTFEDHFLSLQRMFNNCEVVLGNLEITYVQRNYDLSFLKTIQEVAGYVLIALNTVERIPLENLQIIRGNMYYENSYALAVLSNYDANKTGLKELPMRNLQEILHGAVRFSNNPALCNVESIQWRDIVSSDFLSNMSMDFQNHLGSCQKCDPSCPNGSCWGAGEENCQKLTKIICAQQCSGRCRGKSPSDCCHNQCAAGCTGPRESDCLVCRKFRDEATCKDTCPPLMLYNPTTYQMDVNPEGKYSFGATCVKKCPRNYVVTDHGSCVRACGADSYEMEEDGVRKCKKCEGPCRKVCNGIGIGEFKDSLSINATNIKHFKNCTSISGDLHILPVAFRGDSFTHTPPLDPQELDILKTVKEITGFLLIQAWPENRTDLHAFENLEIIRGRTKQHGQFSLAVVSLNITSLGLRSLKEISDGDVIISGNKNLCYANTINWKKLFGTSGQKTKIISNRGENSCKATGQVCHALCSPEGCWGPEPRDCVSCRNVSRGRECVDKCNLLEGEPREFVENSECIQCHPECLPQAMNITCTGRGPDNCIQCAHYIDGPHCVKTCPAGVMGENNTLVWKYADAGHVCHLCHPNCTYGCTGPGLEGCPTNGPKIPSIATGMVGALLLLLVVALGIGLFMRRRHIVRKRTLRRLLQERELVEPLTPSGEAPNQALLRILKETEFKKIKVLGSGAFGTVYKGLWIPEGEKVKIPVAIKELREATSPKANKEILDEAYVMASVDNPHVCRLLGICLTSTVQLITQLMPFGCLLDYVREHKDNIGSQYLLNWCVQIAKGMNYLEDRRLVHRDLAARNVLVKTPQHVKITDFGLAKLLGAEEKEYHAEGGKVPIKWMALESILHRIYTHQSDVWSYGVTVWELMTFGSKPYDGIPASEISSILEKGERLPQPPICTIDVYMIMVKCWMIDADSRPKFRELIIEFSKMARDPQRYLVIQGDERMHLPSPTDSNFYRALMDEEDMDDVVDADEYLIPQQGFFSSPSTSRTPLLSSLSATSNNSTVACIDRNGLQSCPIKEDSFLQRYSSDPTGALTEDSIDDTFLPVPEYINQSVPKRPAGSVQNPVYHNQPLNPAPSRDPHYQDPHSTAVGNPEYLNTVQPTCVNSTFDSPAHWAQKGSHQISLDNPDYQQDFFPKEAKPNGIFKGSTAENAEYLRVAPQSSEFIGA

[7] = biological target: Mitogen-activated protein kinase kinase kinase 1 (Homo sapiens, UniProt Q13233); test: Selectivity interaction (Ambit KINOMEscan and KiNATiv profiling in Jurkat cells) EUB0000090b MAP3K1; format: cell-based; settings: at 1 µM
[8] = biological target: T2, Hormonally up-regulated neu tumor-associated kinase (Homo sapiens); settings: at 10 µM
[9] = biological target: Dual specificity tyrosine-phosphorylation-regulated kinase 1A (Homo sapiens, UniProt Q13627); test: Selectivity interaction (KinomeScan (DiscoverX)) EUB0001619a DYRK1A; settings: at 1 µM
[10] = biological target: Platelet-derived growth factor receptor beta (Homo sapiens, UniProt P09619); test: Selectivity interaction (KinomeScan (DiscoverX)) EUB0000655a PDGFRB; settings: at 10 µM
Sequence of Platelet-derived growth factor receptor beta (P09619 whole entry): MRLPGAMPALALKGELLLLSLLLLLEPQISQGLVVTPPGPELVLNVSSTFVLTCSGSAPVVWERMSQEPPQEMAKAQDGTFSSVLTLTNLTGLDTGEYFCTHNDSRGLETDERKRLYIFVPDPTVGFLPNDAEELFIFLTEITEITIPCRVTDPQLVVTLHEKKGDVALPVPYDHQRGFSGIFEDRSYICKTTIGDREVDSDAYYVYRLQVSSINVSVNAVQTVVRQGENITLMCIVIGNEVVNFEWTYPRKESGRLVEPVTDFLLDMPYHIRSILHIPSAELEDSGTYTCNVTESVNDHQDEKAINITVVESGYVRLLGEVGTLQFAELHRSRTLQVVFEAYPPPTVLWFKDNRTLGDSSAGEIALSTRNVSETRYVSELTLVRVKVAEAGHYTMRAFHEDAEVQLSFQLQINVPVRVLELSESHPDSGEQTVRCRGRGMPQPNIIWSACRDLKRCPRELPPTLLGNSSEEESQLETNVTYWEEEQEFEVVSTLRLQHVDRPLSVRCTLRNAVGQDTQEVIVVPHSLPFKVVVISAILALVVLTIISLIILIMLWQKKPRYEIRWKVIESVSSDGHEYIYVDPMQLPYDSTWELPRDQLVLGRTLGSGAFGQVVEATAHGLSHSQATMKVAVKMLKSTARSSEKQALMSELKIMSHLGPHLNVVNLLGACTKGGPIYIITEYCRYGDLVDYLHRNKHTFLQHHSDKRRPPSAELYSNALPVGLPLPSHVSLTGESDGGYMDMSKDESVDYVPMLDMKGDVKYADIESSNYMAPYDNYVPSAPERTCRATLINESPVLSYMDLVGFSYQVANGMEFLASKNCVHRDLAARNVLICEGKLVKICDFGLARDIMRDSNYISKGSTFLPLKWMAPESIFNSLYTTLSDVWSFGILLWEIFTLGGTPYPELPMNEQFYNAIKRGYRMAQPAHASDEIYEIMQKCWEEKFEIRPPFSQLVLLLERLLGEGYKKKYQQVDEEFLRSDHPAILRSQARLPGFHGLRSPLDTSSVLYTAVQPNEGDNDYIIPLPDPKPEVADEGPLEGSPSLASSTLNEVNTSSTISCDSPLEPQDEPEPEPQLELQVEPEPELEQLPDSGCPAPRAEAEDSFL

[11] = biological target: Myosin-IIIa (Homo sapiens) (UniProt Q8NEV4); test: Selectivity interaction (KinomeScan (DiscoverX)) EUB0000607a MYO3A; settings: at 10 µM
Sequence of Myosin-IIIa (Homo sapiens) (Q8NEV4 whole entry): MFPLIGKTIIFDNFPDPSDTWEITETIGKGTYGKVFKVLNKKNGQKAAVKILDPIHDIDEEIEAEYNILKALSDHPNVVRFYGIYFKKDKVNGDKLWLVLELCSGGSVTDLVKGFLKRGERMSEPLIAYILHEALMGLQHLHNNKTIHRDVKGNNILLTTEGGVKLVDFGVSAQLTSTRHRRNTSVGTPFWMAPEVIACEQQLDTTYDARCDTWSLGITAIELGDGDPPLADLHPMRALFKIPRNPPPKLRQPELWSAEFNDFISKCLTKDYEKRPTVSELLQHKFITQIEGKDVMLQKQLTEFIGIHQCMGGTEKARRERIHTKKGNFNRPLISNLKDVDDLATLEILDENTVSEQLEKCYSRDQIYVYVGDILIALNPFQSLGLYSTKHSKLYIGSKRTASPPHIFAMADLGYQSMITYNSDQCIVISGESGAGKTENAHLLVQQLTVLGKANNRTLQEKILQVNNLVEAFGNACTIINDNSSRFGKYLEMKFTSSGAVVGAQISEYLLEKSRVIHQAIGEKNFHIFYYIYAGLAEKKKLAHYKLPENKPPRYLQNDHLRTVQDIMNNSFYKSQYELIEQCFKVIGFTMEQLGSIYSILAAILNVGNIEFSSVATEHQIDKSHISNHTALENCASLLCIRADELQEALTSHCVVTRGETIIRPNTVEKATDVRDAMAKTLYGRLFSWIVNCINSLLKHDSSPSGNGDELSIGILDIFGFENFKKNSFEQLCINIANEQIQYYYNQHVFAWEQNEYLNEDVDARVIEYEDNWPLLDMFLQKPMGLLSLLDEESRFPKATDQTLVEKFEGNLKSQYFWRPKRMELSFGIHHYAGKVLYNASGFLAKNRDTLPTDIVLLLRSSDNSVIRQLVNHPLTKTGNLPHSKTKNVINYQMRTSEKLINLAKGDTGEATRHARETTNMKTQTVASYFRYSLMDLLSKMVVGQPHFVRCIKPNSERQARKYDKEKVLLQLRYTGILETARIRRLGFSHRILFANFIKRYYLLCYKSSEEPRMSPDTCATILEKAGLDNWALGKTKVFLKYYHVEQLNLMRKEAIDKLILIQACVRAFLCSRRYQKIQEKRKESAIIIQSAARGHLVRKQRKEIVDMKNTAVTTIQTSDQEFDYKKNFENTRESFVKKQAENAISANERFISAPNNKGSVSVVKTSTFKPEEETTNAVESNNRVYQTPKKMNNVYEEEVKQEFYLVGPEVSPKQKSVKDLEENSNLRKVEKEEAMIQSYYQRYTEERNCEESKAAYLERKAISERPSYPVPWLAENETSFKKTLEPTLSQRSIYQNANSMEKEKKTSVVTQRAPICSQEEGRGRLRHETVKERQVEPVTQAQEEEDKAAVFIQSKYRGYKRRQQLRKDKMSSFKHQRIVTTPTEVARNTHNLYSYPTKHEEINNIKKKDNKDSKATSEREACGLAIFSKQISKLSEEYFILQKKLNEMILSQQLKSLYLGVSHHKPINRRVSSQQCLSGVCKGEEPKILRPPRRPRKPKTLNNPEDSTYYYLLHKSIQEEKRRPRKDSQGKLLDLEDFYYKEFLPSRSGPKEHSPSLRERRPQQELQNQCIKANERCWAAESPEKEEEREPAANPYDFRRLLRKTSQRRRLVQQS

SMILES: COc1cc(N(C)c2ccnc3ccc(C(F)(F)F)cc23)cc(OC)c1OC
- % binding [1]: 94%
- % binding [2]: 93%

SMILES: C=CC(=O)Nc1ccc(C(=O)Nc2[nH]nc3c2CN(C(=O)N[C@H](CN(C)C)c2ccccc2)C3(C)C)cc1
- % of engagement [3]: -20.7%

SMILES: CCC(=O)N1CCN(c2ccc(-n3c(=O)ccc4cnc5ccc(-c6cnc7ccccc7c6)cc5c43)cc2C(F)(F)F)CC1
- % of control [4]: 60%

SMILES: Cc1cnc(Nc2ccc(F)cc2Cl)nc1-c1c[nH]c(C(=O)N[C@H](CO)c2cccc(Cl)c2)c1
- % of inhibition [5]: 3%

SMILES: CN(C)C/C=C/C(=O)Nc1ccc(C(=O)N2CCCC(Nc3ncc(Cl)c(-c4c[nH]c5ccccc45)n3)C2)cc1 (stereo unspecified)
- % of control [6]: 91%
- % of control [7]: 82%

SMILES: Cc1cc([C@@H](C)Nc2ccccc2C(=O)O)c2nc(N3CCOCC3)cc(=O)n2c1 [AZD-6482]
- % of control [8]: 81%

SMILES: N#Cc1cccc(-c2c[nH]c3ncnc(N4CCOCC4)c23)c1
- % of control [9]: 78%

SMILES: CN(C)CCOc1ccc(-c2nc(-c3ccncc3)c(-c3ccc4c(c3)CC/C4=N\O)[nH]2)cc1
- % of control [10]: 63%

SMILES: CNC(=O)Nc1ccc(-c2nc(N3CC4CCC(C3)O4)c3cnn(C4CCC5(CC4)OCCO5)c3n2)cc1
- % of control [11]: 52%
